One test deals with T1, CDK6/CyclinD3 (Homo sapiens, UniProt Q00534).
T1 construct: purchased Carna 04-107
Nature of the test: Assay for inhibition of CDK6/CyclinD3 (Caliper microfluidic kinase assay). The format is biochemical. To be noted: CDK6/CyclinD3, 300 μM ATP. Summed up:
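IC50s came from four-parameter dose-response fits of microfluidic substrate/product separation data. Reactions held 2 nM CDK6/CyclinD3, 300 μM ATP and 1 μM 5-FAM peptide FL-34 in pH 7.5 HEPES/MgCl2 buffer, ran 3 hours at room temperature, then were quenched with EDTA.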

In the next test the target is T2, CDK2/CyclinE1 (Homo sapiens, UniProt P24941).
T2 construct: purchased SignalChem C29-18G
As to the kind of experiment: Assay for inhibition of CDK2/CyclinE1 (Caliper microfluidic kinase assay). The format is biochemical. To be noted: CDK2/CyclinE1, 100 μM ATP; read-out: CDK2 IC50. In a few lines: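 IC50 came from 4-parameter fits of substrate-to-product conversion, separated on a Caliper chip after an EDTA stop. Reactions ran 3 hours at room temperature with 100 μM ATP, 5 μM fluorescent FL-18 peptide and 5 nM enzyme in 100 mM HEPES pH 7.5, 10 mM MgCl2.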

A further test deals with T3, CDK4/CyclinD1 (Homo sapiens, UniProt P11802).
T3 construct: purchased Thermofisher PR8064A
T3 sequence (P11802 whole entry): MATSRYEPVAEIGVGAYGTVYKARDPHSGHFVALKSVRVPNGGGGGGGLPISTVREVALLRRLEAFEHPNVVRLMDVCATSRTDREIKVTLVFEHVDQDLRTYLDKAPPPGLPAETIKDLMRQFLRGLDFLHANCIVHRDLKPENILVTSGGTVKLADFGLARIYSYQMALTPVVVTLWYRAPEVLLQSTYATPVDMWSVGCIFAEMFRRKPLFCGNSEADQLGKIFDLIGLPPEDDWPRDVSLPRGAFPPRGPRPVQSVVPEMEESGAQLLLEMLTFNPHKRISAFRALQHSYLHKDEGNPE
T3 sequence (P24385 whole entry partner): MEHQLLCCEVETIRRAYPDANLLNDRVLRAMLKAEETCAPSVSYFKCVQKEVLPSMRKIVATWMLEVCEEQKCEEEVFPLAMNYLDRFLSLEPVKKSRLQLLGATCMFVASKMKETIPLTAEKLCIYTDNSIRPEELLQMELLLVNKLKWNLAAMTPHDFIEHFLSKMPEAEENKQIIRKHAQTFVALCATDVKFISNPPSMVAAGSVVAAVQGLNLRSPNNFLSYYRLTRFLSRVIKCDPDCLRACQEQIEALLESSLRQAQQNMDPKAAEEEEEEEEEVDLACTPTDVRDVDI
As to the kind of experiment: Assay for inhibition of CDK4/CyclinD1 (Caliper microfluidic kinase assay). The format is biochemical. The note with it: CDK4/CyclinD1, 200 μM ATP. In a few lines:
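IC50 was obtained by 4-parameter sigmoidal fitting after 1 nM CDK4/CyclinD1, 200 μM ATP and 1 μM FL-34 substrate reacted for 3 h at room temperature (pH 7.5 HEPES, 10 mM MgCl2). After EDTA quench, substrate and product were separated and detected on a Caliper microfluidic chip.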

Test [1] relates to phosphorylation of Retinoblastoma Protein (pRb Ser807/811 or Ser780) in T47D cells. As to the kind of experiment: Inhibition of phosphorylation of retinoblastoma protein (pRb) in T47D cell (ELISA). The format is cell-based, human. The note with it: Homo sapiens, T47D, read-out: Phospho T47D Ser807 IC50, pRb Ser807 phosphorylation, T47D cells. In a few lines: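 T47D cells in RPMI 1640 + 10% FBS, adhered overnight, then treated 24 h with 3-fold compound titrations (top concentration […]). Lysates assayed by sandwich ELISA for pRb Ser807/811 or Ser780 with HRP/TMB detection. IC50 from 4-parameter sigmoidal fit.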
(In general: An ELISA detects its analyte on a solid surface through an enzyme-linked reagent.)

Another test deals with T47D breast cancer cells. As to the kind of experiment: Anti-proliferation assay in T47D cell (Cyquant, day 6). The class given is cell-based, human. The note with it: Homo sapiens, T47D, anti-proliferation, T47D cells; read-out: T47D IC50. In a few lines:
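A ten-point, 3-fold compound series (10 μM down to 0.51 nM) was applied to overnight-settled cells in 10% FBS RPMI 1640, and DNA content was read by CyQuant fluorescence 6 days later. An untreated plate read before dosing served as baseline for subtraction before IC50 fitting.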

pIC50: −log10 of the molar value.

T1 sequence (Q00534 whole entry): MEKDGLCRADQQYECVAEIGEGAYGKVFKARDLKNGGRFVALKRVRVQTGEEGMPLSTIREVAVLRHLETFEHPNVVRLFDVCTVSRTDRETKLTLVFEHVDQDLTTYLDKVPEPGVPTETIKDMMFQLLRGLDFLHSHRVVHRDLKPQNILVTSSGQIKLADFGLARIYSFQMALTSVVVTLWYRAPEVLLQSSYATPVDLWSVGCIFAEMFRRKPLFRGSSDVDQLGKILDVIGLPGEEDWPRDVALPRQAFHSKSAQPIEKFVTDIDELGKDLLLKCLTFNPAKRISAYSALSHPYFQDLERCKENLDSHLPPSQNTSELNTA
T1 sequence (P30281 whole entry partner): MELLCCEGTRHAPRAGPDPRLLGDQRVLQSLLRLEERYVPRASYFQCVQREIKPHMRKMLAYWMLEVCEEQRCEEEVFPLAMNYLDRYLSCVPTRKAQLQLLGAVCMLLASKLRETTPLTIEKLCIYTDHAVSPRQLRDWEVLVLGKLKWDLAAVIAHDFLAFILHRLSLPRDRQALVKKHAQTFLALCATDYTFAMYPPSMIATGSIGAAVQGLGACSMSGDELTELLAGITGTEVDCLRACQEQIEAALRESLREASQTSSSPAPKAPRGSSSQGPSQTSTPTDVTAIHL

By pIC50 is commonly meant −log10 of the IC50, conventionally taken in molar units. Take `CC(C)c1cnn2ccc(-c3ccnc(Nc4ccc(N5CCNC5=O)cn4)n3)cc12` [compound 163]: the negative-log IC50 (pIC50) at CDK6/CyclinD3 was 7.00 to 8.00; at CDK2/CyclinE1, 7.00 to 8.00; at CDK4/CyclinD1, more than 8.00; in test [1], more than 7.00; with T47D breast cancer cells, more than 7.00.

For `CC(C)c1cnn2ccc(-c3ccnc(Nc4ccc(N5CCOCC5=O)cc4F)n3)cc12` [compound 164], the negative-log IC50 (pIC50) was 7.00 to 8.00 at CDK6/CyclinD3; more than 8.00 at CDK2/CyclinE1; more than 8.00 against CDK4/CyclinD1; more than 7.00 in test [1]; more than 7.00 in the test on T47D breast cancer cells.

As to `CC(C)c1cnn2ccc(-c3ccnc(Nc4ccc(S(N)(=O)=O)cc4)n3)cc12` [compound 165], the pIC50 against CDK6/CyclinD3 is 6.00 to 7.00; at CDK2/CyclinE1, more than 8.00; at CDK4/CyclinD1 it was 7.00 to 8.00; in test [1], 6.30 to 7.00; in the test on T47D breast cancer cells, more than 7.00.

Consider `CNC(=O)c1ccc(Nc2nccc(-c3ccn4ncc(C(C)C)c4c3)n2)cc1` [compound 166], for which the negative logarithm of the IC50 (pIC50) was 7.00 to 8.00 at CDK6/CyclinD3; more than 8.00 at CDK2/CyclinE1; more than 8.00 against CDK4/CyclinD1; more than 7.00 in test [1]; more than 7.00 in the test on T47D breast cancer cells.

Regarding `CC(C)c1cnn2ccc(-c3ccnc(Nc4ccc(C(=O)N(C)C)cc4)n3)cc12` [compound 167], the pIC50 is 7.00 to 8.00 on CDK6/CyclinD3; more than 8.00 on CDK2/CyclinE1; more than 8.00 against CDK4/CyclinD1; more than 7.00 in test [1]; more than 7.00 with T47D breast cancer cells.

As for `CC(C)c1cnn2ccc(-c3ccnc(Nc4ccc(C(N)=O)cc4)n3)cc12` [compound 168], the pIC50 at CDK6/CyclinD3 is 7.00 to 8.00; on CDK2/CyclinE1, more than 8.00; against CDK4/CyclinD1 it was more than 8.00; in test [1], more than 7.00; in the test with T47D breast cancer cells it was more than 7.00.

With `CC(C)c1cnn2ccc(-c3ccnc(Nc4ccc(N5CCC(N6CCC6)CC5=O)cn4)n3)cc12` (centres unmarked) [compound 171], the negative-log IC50 (pIC50) against CDK6/CyclinD3 is 7.00 to 8.00; on CDK2/CyclinE1 it was more than 8.00; on CDK4/CyclinD1, more than 8.00; in test [1] it was more than 7.00; in the test with T47D breast cancer cells it was more than 7.00.

Consider `CC(C)c1cnn2ccc(-c3ccnc(Nc4ccc(N5CCC(N(C)C)CC5=O)cc4)n3)cc12` (centres unmarked) [compound 172], for which the pIC50 was more than 8.00 against CDK6/CyclinD3; more than 8.00 on CDK2/CyclinE1; more than 8.00 at CDK4/CyclinD1; more than 7.00 in test [1]; more than 7.00 with T47D breast cancer cells.

On to `CC(C)c1cnn2ccc(-c3ccnc(Nc4ccc(N5CCCNC5=O)cc4)n3)cc12` [compound 173], for which the pIC50 on CDK6/CyclinD3 is more than 8.00; at CDK2/CyclinE1 it was 7.00 to 8.00; on CDK4/CyclinD1, more than 8.00; in test [1], more than 7.00; in the test with T47D breast cancer cells, more than 7.00.

In the case of `CCN(CC)C1CCN(c2ccc(Nc3nccc(-c4ccn5ncc(C(C)C)c5c4)n3)nc2)C(=O)C1` (centres unmarked) [compound 176], the negative logarithm of the IC50 (pIC50) against CDK6/CyclinD3 is 7.00 to 8.00; at CDK2/CyclinE1 it was 7.00 to 8.00; at CDK4/CyclinD1 it was more than 8.00; in test [1], more than 7.00; with T47D breast cancer cells, more than 7.00.

With `CC(C)c1cnn2ccc(-c3ccnc(Nc4ccc(N5CCC=CC5=O)cn4)n3)cc12` [compound 184], the negative logarithm of the IC50 (pIC50) was 7.00 to 8.00 on CDK6/CyclinD3; 7.00 to 8.00 on CDK2/CyclinE1; more than 8.00 at CDK4/CyclinD1; more than 7.00 in test [1]; more than 7.00 with T47D breast cancer cells.

Consider `CC(C)c1cnn2ccc(-c3ccnc(Nc4ccc(C(=O)N5CCC(NC6CC6)C5)cc4)n3)cc12` (centres unmarked) [compound 191], for which the pIC50 was 7.00 to 8.00 on CDK6/CyclinD3; more than 8.00 at CDK2/CyclinE1; more than 8.00 on CDK4/CyclinD1; more than 7.00 in test [1]; more than 7.00 in the test on T47D breast cancer cells.

Regarding `Cc1nn2ccc(-c3ccnc(Nc4ccc(N5CCNCC5=O)cn4)n3)cc2c1C(C)C` [compound 192], the negative logarithm of the IC50 (pIC50) at CDK6/CyclinD3 was 7.00 to 8.00; at CDK2/CyclinE1, 7.00 to 8.00; against CDK4/CyclinD1, more than 8.00; in test [1] it was more than 7.00; with T47D breast cancer cells it was more than 7.00.

As for `CC1CC(=O)N(c2ccc(Nc3ncc(F)c(-c4ccn5ncc(C(C)C)c5c4)n3)nc2)CCN1` (centres unmarked) [compound 193], the negative logarithm of the IC50 (pIC50) against CDK6/CyclinD3 was 7.00 to 8.00; on CDK2/CyclinE1 it was 7.00 to 8.00; against CDK4/CyclinD1, more than 8.00; in test [1], more than 7.00; in the test on T47D breast cancer cells, more than 7.00.

Turning to `CC1CN(c2ccc(Nc3ncc(F)c(-c4ccn5ncc(C(C)C)c5c4)n3)nc2)C(=O)CCN1` (centres unmarked) [compound 194], the negative logarithm of the IC50 (pIC50) on CDK6/CyclinD3 was 7.00 to 8.00; on CDK2/CyclinE1, 7.00 to 8.00; at CDK4/CyclinD1, more than 8.00; in test [1], more than 7.00; in the test on T47D breast cancer cells it was 6.30 to 7.00.

Turning to `O=C1CCNCCN1c1ccc(Nc2ncc(F)c(-c3ccn4ncc(C5CC5)c4c3)n2)nc1` [compound 195], the pIC50 at CDK6/CyclinD3 is 7.00 to 8.00; at CDK2/CyclinE1, 6.00 to 7.00; on CDK4/CyclinD1, more than 8.00; in test [1], more than 7.00; in the test with T47D breast cancer cells, more than 7.00.

Consider `CC(C)c1cnn2ccc(-c3ccnc(Nc4ccc(N5CCC(C)(N)CC5=O)cn4)n3)cc12` (centres unmarked) [compound 196], for which the pIC50 is 7.00 to 8.00 on CDK6/CyclinD3; more than 8.00 at CDK2/CyclinE1; more than 8.00 against CDK4/CyclinD1; more than 7.00 in test [1]; more than 7.00 with T47D breast cancer cells.

Turning to `CC(C)(C)c1cnn2ccc(-c3ccnc(Nc4ccc(N5CCNCCC5=O)cn4)n3)cc12` [compound 197], the negative logarithm of the IC50 (pIC50) at CDK6/CyclinD3 is 7.00 to 8.00; at CDK2/CyclinE1, 7.00 to 8.00; on CDK4/CyclinD1, more than 8.00; in test [1], more than 7.00; with T47D breast cancer cells it was more than 7.00.

As for `CC(C)c1cnn2ccc(-c3nc(Nc4ccc(N5C(=O)CC6CC5CN6)cn4)ncc3F)cc12` (centres unmarked) [compound 198], the pIC50 against CDK6/CyclinD3 was 7.00 to 8.00; on CDK2/CyclinE1, 7.00 to 8.00; against CDK4/CyclinD1 it was more than 8.00; in test [1], more than 7.00; with T47D breast cancer cells, more than 7.00.

`CC(C)c1cnn2ccc(-c3nc(Nc4ccc(N5CC6CCC(CC5=O)N6)cn4)ncc3F)cc12` (centres unmarked) [compound 199]: the negative logarithm of the IC50 (pIC50) against CDK6/CyclinD3 is more than 8.00; at CDK2/CyclinE1 it was 7.00 to 8.00; on CDK4/CyclinD1 it was more than 8.00; in test [1], more than 7.00; in the test with T47D breast cancer cells it was more than 7.00.

`CC(C)c1cnn2ccc(-c3ccnc(Nc4ccc(N5CCC(N6CCNCC6)CC5=O)cn4)n3)cc12` (centres unmarked) [compound 200]: the negative-log IC50 (pIC50) is 7.00 to 8.00 on CDK6/CyclinD3; 7.00 to 8.00 at CDK2/CyclinE1; more than 8.00 on CDK4/CyclinD1; more than 7.00 in test [1]; more than 7.00 with T47D breast cancer cells.

For `CC(C)c1cnn2ccc(-c3ccnc(Nc4ccc(N5CCC(C)(N)CC5=O)cc4)n3)cc12` (centres unmarked) [compound 202], the pIC50 on CDK6/CyclinD3 is more than 8.00; at CDK2/CyclinE1, more than 8.00; at CDK4/CyclinD1, more than 8.00; in test [1] it was more than 7.00; in the test with T47D breast cancer cells it was more than 7.00.

For the compound `CC(C)c1cnn2ccc(-c3ccnc(Nc4ccc(N5CCC(N)CC5=O)cn4)n3)cc12` (centres unmarked) [compound 203], the negative-log IC50 (pIC50) against CDK6/CyclinD3 was 7.00 to 8.00; on CDK2/CyclinE1 it was more than 8.00; against CDK4/CyclinD1, more than 8.00; in test [1], more than 7.00; in the test on T47D breast cancer cells, more than 7.00.

On to `CC(C)c1cnn2ccc(-c3ccnc(Nc4ccc(N5CCCC(N)C5=O)cn4)n3)cc12` (centres unmarked) [compound 207], for which the negative-log IC50 (pIC50) against CDK6/CyclinD3 was more than 8.00; on CDK2/CyclinE1, 7.00 to 8.00; on CDK4/CyclinD1, more than 8.00; in test [1], more than 7.00; with T47D breast cancer cells, more than 7.00.

Turning to `CC(C)c1cnn2ccc(-c3ccnc(Nc4ccc(N5CCCC(N)C5=O)cc4)n3)cc12` (centres unmarked) [compound 214], the negative-log IC50 (pIC50) is more than 8.00 at CDK6/CyclinD3; more than 8.00 on CDK2/CyclinE1; more than 8.00 at CDK4/CyclinD1; more than 7.00 in test [1]; more than 7.00 with T47D breast cancer cells.

As for `CC(C)c1cnn2ccc(-c3ccnc(Nc4ccc(N5CCN(C6COC6)CC5=O)cn4)n3)cc12` [compound 234], the pIC50 was 7.00 to 8.00 against CDK6/CyclinD3; 7.00 to 8.00 at CDK2/CyclinE1; more than 8.00 on CDK4/CyclinD1; more than 7.00 in test [1]; more than 7.00 in the test on T47D breast cancer cells.

In the case of `CCN1CCN(c2ccc(Nc3nccc(-c4ccn5ncc(C(C)C)c5c4)n3)nc2)C(=O)C1` [compound 235], the pIC50 is 7.00 to 8.00 against CDK6/CyclinD3; 7.00 to 8.00 on CDK2/CyclinE1; more than 8.00 against CDK4/CyclinD1; more than 7.00 in test [1]; more than 7.00 in the test with T47D breast cancer cells.

In the case of `CC(C)c1cnn2ccc(-c3ccnc(Nc4ccc(N5CCN(S(C)(=O)=O)CCC5=O)cn4)n3)cc12` [compound 236], the negative-log IC50 (pIC50) is more than 8.00 at CDK6/CyclinD3; 7.00 to 8.00 at CDK2/CyclinE1; more than 8.00 on CDK4/CyclinD1; more than 7.00 in test [1]; more than 7.00 in the test on T47D breast cancer cells.
